This is an account of results in US20230078764A1 (Yumanity Therapeutics, Inc., priority 2019, published 2023).

Format in all cases: cell-based
Test [1] deals with human SCD5 (Homo sapiens, UniProt Q86SK9). Put plainly: Growth inhibition of yeast strain expressing human SCD5 as sole desaturase (OLE1 deleted), OD600 readout.
Test [2] has as its target human SCD1 (Homo sapiens, UniProt O00767). Briefly: Growth inhibition of yeast strain expressing human SCD1 as sole desaturase (OLE1 deleted), OD600 readout.
The target of test [3] is T1, human SCD1 (Homo sapiens, UniProt O00767).
T1 construct: expressed in transfected cells; host or cells: yeast strain with OLE1 deleted, plasmid-borne human SCD1 (selected in SD-Ura)
T1 sequence (O00767 1-359): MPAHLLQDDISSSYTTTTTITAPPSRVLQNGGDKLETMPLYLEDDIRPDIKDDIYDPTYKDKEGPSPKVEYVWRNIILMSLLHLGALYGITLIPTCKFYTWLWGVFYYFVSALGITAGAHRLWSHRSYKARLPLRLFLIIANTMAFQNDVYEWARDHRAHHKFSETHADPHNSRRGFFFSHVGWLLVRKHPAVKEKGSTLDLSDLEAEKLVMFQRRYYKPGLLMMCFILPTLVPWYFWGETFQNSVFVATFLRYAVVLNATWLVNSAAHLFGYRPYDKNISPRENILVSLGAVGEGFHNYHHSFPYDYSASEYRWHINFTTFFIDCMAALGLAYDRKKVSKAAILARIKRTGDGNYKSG
The description is as above. To be noted: yeast strain expressing human SCD1 as sole desaturase; growth (OD600) after 40 h at 30° C.; read-out: SCD1 IC50.

Test [4] has as its target T2, human SCD5 (Homo sapiens, UniProt Q86SK9).
T2 construct: expressed in transfected cells; host or cells: yeast strain with OLE1 deleted, plasmid-borne human SCD5 (selected in SD-Ura)
T2 sequence (Q86SK9 1-330): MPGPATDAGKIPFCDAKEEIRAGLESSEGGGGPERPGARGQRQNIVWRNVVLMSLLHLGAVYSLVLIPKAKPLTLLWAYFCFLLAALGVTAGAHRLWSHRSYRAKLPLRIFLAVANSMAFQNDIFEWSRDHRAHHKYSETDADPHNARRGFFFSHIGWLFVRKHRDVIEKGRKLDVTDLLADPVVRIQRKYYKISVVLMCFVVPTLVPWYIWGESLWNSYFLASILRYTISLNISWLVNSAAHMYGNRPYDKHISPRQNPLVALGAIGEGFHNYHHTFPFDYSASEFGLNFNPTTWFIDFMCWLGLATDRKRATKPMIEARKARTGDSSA
Briefly: Growth inhibition of yeast strain expressing human SCD5 as sole desaturase (OLE1 deleted), OD600 readout.

Where [5] appears, read: yeast strain expressing human SCD5 as sole desaturase, growth (OD600) after 40 h at 30° C., read-out: SCD5 IC50.

SMILES strings stand for the structures. Where two headings read alike, the source gives them in different places.

The term IC50 denotes the concentration that inhibits the measured activity by half. Turning to `CN1N=C(C(=O)Nc2ncc(Cc3ccccc3)s2)CCC1=O`, the IC50 is 190 nM in test [1] and 590 nM in test [2].
Consider `CN1N=C(C(=O)Nc2ncc(Cc3cccc(Cl)c3)cn2)CCC1=O` [Compound 175, N-(5-(3-chlorobenzyl)pyrimidin-2-yl)-1-methyl-6-oxo-1,4,5,6-tetrahydropyridazine-3-carboxamide], for which the IC50 in test [1] was 20100 nM; in test [3], greater than 45000 nM.
For `COc1cccc(Cc2ccc(NC(=O)C3=NN(C)C(=O)CC3)nc2)c1` [Example 30, N-(5-(3-methoxybenzyl)pyridin-2-yl)-1-methyl-6-oxo-1,4,5,6-tetrahydropyridazine-3-carboxamide], the results for the IC50 in test [4] (setting [5]) and in test [3] were 3530 nM and greater than 45000 nM, respectively.
For `CN1N=C(C(=O)Nc2ccc(Cc3cc(Cl)cc(Cl)c3)cn2)CCC1=O` [Example 31], in that order: 50 nM and 6280 nM.
For `CN1N=C(C(=O)Nc2ccc(Cc3cccc(C(F)F)c3)cn2)CCC1=O` [Example 32, N-(5-(3-(difluoromethyl)benzyl)pyridin-2-yl)-1-methyl-6-oxo-1,4,5,6-tetrahydropyridazine-3-carboxamide], in that order: 310 nM and 26400 nM.
`CN1N=C(C(=O)Nc2ccc(Cc3ccc(C#N)c(Cl)c3)cn2)CCC1=O` [Example 33, N-(5-(3-chloro-4-cyanobenzyl)pyridin-2-yl)-1-methyl-6-oxo-1,4,5,6-tetrahydropyridazine-3-carboxamide]: the half-inhibitory concentration (IC50) in test [4] (setting [5]) is 18000 nM; in test [3], greater than 45000 nM.
Regarding `CN1N=C(C(=O)Nc2ccc(CC3=CCCCC3)cn2)CCC1=O` [Example 34, N-(5-(cyclohexenylmethyl)pyridin-2-yl)-1-methyl-6-oxo-1,4,5,6-tetrahydropyridazine-3-carboxamide], the figures for the IC50 in test [4] (setting [5]) and in test [3] were 710 nM and greater than 45000 nM, respectively.
The matching figures for `Cn1nc(C(=O)Nc2ccc(Cc3ccc(F)c(F)c3)cn2)ccc1=O` [Example 35, N-(5-(3,4-difluorobenzyl)pyridin-2-yl)-1-methyl-6-oxo-1,6-dihydropyridazine-3-carboxamide]: 300 nM and greater than 45000 nM.
Consider `Cn1nc(C(=O)Nc2ccc(Cc3ccc(Cl)cc3)cn2)ccc1=O` [Example 36, N-(5-(4-chlorobenzyl)pyridin-2-yl)-1-methyl-6-oxo-1,6-dihydropyridazine-3-carboxamide], for which the figures for the IC50 in test [4] (setting [5]) and in test [3] were 380 nM and 16900 nM, respectively.
For `Cn1nc(C(=O)Nc2ccc(Cc3cc(F)cc(F)c3)cn2)ccc1=O` [Example 37, N-(5-(3,5-difluorobenzyl)pyridin-2-yl)-1-methyl-6-oxo-1,6-dihydropyridazine-3-carboxamide], in that order: 50 nM and 10200 nM.
For `Cn1nc(C(=O)Nc2ccc(CC3CCCCC3)cn2)ccc1=O` [Example 38, N-(5-(cyclohexylmethyl)pyridin-2-yl)-1-methyl-6-oxo-1,6-dihydropyridazine-3-carboxamide], the IC50 was 890 nM in test [4] (setting [5]) and 15700 nM in test [3].
For `Cn1nc(C(=O)Nc2ccc(Cc3ccc(C(F)(F)F)cc3)cn2)ccc1=O` [Example 39, 1-methyl-6-oxo-N-(5-(4-(trifluoromethyl)benzyl)pyridin-2-yl)-1,6-dihydropyridazine-3-carboxamide], in that order: 920 nM and greater than 45000 nM.
For `Cn1nc(C(=O)Nc2ccc(Cc3cc(F)cc(Cl)c3)cn2)ccc1=O` [Example 40, N-(5-(3-chloro-5-fluorobenzyl)pyridin-2-yl)-1-methyl-6-oxo-1,6-dihydropyridazine-3-carboxamide], in that order: 10 nM and 110 nM.
In the case of `Cn1nc(C(=O)Nc2ccc(Cc3cc(F)c(F)c(F)c3)cn2)ccc1=O` [Example 41, 1-methyl-6-oxo-N-(5-(3,4,5-trifluorobenzyl)pyridin-2-yl)-1,6-dihydropyridazine-3-carboxamide], the results for the IC50 in test [4] (setting [5]) and in test [3] were 10 nM and 190 nM, respectively.
In the case of `Cn1nc(C(=O)Nc2ccc(Cc3cc(F)cc(C#N)c3)cn2)ccc1=O` [Example 42, N-(5-(3-cyano-5-fluorobenzyl)pyridin-2-yl)-1-methyl-6-oxo-1,6-dihydropyridazine-3-carboxamide], the IC50 in test [4] (setting [5]) worked out at 80 nM; in test [3] it was 2410 nM.
For `COc1cccc(Cc2ccc(NC(=O)c3ccc(=O)n(C)n3)nc2)c1` [Example 44, N-(5-(3-methoxybenzyl)pyridin-2-yl)-1-methyl-6-oxo-1,6-dihydropyridazine-3-carboxamide], in that order: 780 nM and 14100 nM.
Regarding `Cn1nc(C(=O)Nc2ccc(Cc3cccc(F)c3)cn2)ccc1=O` [Example 45, N-(5-(3-fluorobenzyl)pyridin-2-yl)-1-methyl-6-oxo-1,6-dihydropyridazine-3-carboxamide], the IC50 in test [4] (setting [5]) worked out at 430 nM; in test [3], 15400 nM.
On to `Cn1nc(C(=O)Nc2ccc(Cc3ccc(F)c(Cl)c3)cn2)ccc1=O` [Example 46, N-(5-(3-chloro-4-fluorobenzyl)pyridin-2-yl)-1-methyl-6-oxo-1,6-dihydropyridazine-3-carboxamide], for which the figures for the IC50 in test [4] (setting [5]) and in test [3] were 10 nM and 60 nM, respectively.
Take `Cn1nc(C(=O)Nc2ccc(Cc3cccc(Cl)c3)cn2)ccc1=O` [Example 47, N-(5-(3-chlorobenzyl)pyridin-2-yl)-1-methyl-6-oxo-1,6-dihydropyridazine-3-carboxamide]: the figures for the IC50 in test [4] (setting [5]) and in test [3] were 130 nM and 1100 nM, respectively.
Take `Cn1cc(C(=O)Nc2ccc(Cc3cccc(Cl)c3)cn2)ccc1=O` [Example 48, N-(5-(3-chlorobenzyl)pyridin-2-yl)-1-methyl-6-oxo-1,6-dihydropyridine-3-carboxamide]: the IC50 turned out to be 10 nM in test [4] (setting [5]) and 150 nM in test [3].
As for `COc1ccc(Cc2ccc(NC(=O)c3ccc(=O)n(C)c3)nc2)cc1F` [Example 49, N-(5-(3-fluoro-4-methoxybenzyl)pyridin-2-yl)-1-methyl-6-oxo-1,6-dihydropyridine-3-carboxamide], the IC50 in test [4] (SCD5 IC50) was 21200 nM; in test [3], greater than 45000 nM.
